Data set [1] relates to NFAT activation. In words: In vitro NFAT analysis: NFAT dual reporter luciferase assay in T-47D cells. It counts as cell-based. The settings on record: 500 μM daily for 72 hrs, p<0.05. The method, then: (§1) • Transfection: T-47D cells were plated at 1×10^4 cells/well in a 96-well plate and cultured overnight. Cells were transfected for 24 hrs at 37° C./5% CO2 using Liptofectamine 3000 (0.3 μL/well)/P3000 Reagent (1 μL/well) in Opti-MEM medium and with a 500 ng of NFAT dual reporter plasmid (Cignal NFAT Reporter, Qiagen). • Drug Dosing: After transfection the T-47D cells were dosed daily with NT (s.f. PBS) or 500 μM SOR-C13 (prepared fresh daily in f.s. PBS) for 72 hrs. Once dosed the 96-well plate was incubated at 37° C./5% CO2 for the duration dosing period of 72 hrs. Dosing was repeated every 24 hrs for 72 hrs. • Plate Assay: Luminescence was monitored using Dual-Glo® Luciferase assay (Promega) to measure changes in NFAT luminescence expression (related to pKC pathway) between PBS and SOR-C13 treated T-47D cells. Firefly and Renilla Luminescence was measured using a molecular devices microplate reader.

The test system of data set [2] is calcineurin. In words: Calcineurin Cellular (PP2B) Phosphate Activity Assay on BxPC-3 cell lysates. The class given is cell-based. The settings on record: 500 μM, at 24 hrs and 72 hrs, p<0.05. The protocol:
(§2) • Drug Dosing: Cells were plated at 5×10^5 cells/well in a 6-well plate. After 24 hrs incubation the BxPC-3 cells were dosed daily with NT (s.f. PBS) or 500 μM SOR-C13 (prepared fresh daily in f.s. PBS) for 72 hrs. Once dosed cells were incubated at 37° C./5% CO2 for the duration dosing period of 72 hrs. Dosing was repeated every 24 hrs for 72 hrs. Every 24 hrs protein lysates (RIPA) were prepared from cells and de-salted (7 kDa MWCO, Zebra spin columns, Fisher). Bel-2 assay was a 96 hrs dosing parameter. • Plate Assay (Calnr): Cellular Calcineurin concentration was monitored at 620 nm using the Calcineurin Cellular (PP2B) Phosphate Activity Assay kit (EMD Millipore). Results were interpolated from standard curve for amount of Phosphate released. • Plate Assay (Bcl-2): Human total Bel-2 concentration was performed using DuoSet® Human Total BcL-2 sandwich ELISA (R&D Systems). Bel-2 concentration for BxPC-3 cells was extrapolated from (4-PL) standard curve Bel-2.

Data set [3] concerns Human total Bel-2. Nature of the data set: Human Total Bcl-2 sandwich ELISA on BxPC-3 cells. The settings on record: 500 μM, at 96 hrs, p<0.05. It counts as cell-based. The protocol:
as §2
(In an ELISA, binding on a coated surface is turned into a signal by an enzyme label.)

In data set [4] the test system is MMP-9. Nature of the data set: MMP-9 Cytoglow ELISA on BxPC-3 cells. It counts as cell-based. Particulars: BxPC-3 cells treated for 96 hr daily at 100 and 500 μM, p<0.05. The method, then: • Drug Dosing: BxPC-3 cells were plated at 2×10^4 cells/well in a 96-well plate and cultured overnight. Cells were dosed daily with NT (s.f. PBS) 100, 500 μM SOR-C13 (prepared fresh daily in f.s. PBS) for 96 hrs. Dosing was repeated every 24 hrs for 96 hrs. • Plate Assay: MMP-9 concentration was monitored using the MMP-9 Cytoglow ELISA (Assay Biotech). Cells were fixed to plate, and ELISA was performed, MMP-9 expression was calculated as % of No Treatment control.

Data set [5] has as its system T-47D breast cancer cell lines. In words: RT-qPCR TaqMan Array, 187 gene panel, T-47D cells treated with SOR-C13. The class given is cell-based. Particulars: 500 μM for 120 hrs, genes with >1.5 fold change. The protocol: • mRNA Expression: The expression NFAT/Ca^2+ related genes mRNA levels were determined in 6 Cancer Cell lines treated with SOR-C13 (500 μM) for 120 hrs using a qPCR TaqMan® Array panel consisting of 187 genes (ThermoFisher). Cells were harvested with lysis buffer from the PureLink RNA Mini Kit and then RNA isolation carried out as per manufacturers instructions (ThermoFisher Scientific). RNA was quantified using the Qubit Fluorometer. Reverse Transcription was performed and cDNA created using SuperScript™ IV VILO Master Mix with ezDNase Enzyme (ThermoFisher Scientific). Each port of the Custom TaqMan® Array Card was loaded with 500 ng of cDNA and 1× TaqMan Fast Advanced Master Mix. RT-qPCR was performed using the Quantstudio™ 7Flex and analysis performed by ThermoFisher cloud software using GUSB and HRPT1 as endogenous controls.
A general note: Quantitative PCR measures a nucleic acid by following its amplification.

Data set [6] concerns NFAT signalling molecular pathway targets (Calnr, Bel-2, ATX, MMP-9 and NFAT). Nature of the data set: In vitro dosing experiments, NFAT signalling molecular pathway targets (summary). It counts as cell-based. The method, then:
as §1
• Drug Dosing: Cells were plated at 5×10^5 cells/well in a 6-well plate. After 24 hrs incubation the BxPC-3 cells were dosed daily with NT (s.f. PBS) or 500 μM SOR-C13 (prepared fresh daily in f.s. PBS) for 72 hrs. […] Bel-2 assay was a 96 hrs dosing parameter. • Plate Assay (Calnr): Cellular Calcineurin concentration was monitored at 620 nm using the Calcineurin Cellular (PP2B) Phosphate Activity Assay kit (EMD Millipore). […]

For data set [7], the system named is BxPC-3 pancreatic cancer cells. Nature of the data set: Combination with immune checkpoint modulator: BxPC-3 cells co-incubated with activated Jurkat cells, viability and IL-2. The class given is cell-based. Particulars: BxPC-3 pre-treated with INF-γ, 100 μM SOR-C13 48 hours. The protocol:
Experiments are performed to evaluate the effect of TRPV6 inhibitors in combination with immune checkpoint modulators such as PD-1 inhibitors (see Yang et al., Invest Ophthalmol Vis Sci. 2008 June; 49(6): 2518-2525; and FIG. 2). Briefly, BxPC-3 pancreatic cancer cells are treated with INF-γ for 48 hours to induce the cell surface expression of PD-L1. Once activated, sets of BxPC-3 cells are treated with 0 or 100 μM of SOR-C13 (KEFLHPSKVDLPR; SEQ ID NO:2) for 48 hours. Immune checkpoint modulatory test agents such as pembrolizumab (KEYTRUDA*) are added at various concentrations, along with activated Jurkat cells (i.e., cytotoxic T-cells), and co-incubated with the BxPC-3 cells for 48 hours.
Viability and IL-2 production is determined 48 hours later. Activated Jurkat cells produce IL-2 which mediates the killing of BxPC-3 cells. Cell death is quantified using the Cell Titre Glow Cellular Viability Assay. The effect of SOR-C13 on IL-2 mediated killing of BxPC-3 cells is compared to IL-2 mediated killing of BxPC-3 cells in the absence of SOR-C13.

The conditions of data set [8]: Fu et al. 2017; cited from earlier work.

As for KEFLHPSKVDLPR [SOR-C13], the “NFAT activation, SOR-C13-treated cells vs. PBS” value in data set [1] was “significant difference”. Moreover, the calcineurin activity entry in data set [2] is recorded as “inhibition”. The Bel-2 expression entry in data set [3] is on record as “significant decrease”. Also, the “MMP-9 expression, % from PBS control” value in data set [4] is given as “reduction”. For the same sequence, the “NFATC1, MMP2, GSK3 and RCAN1 mRNA expression (Calcineurin/NFAT pathway)” value in data set [5] is on record as “affected”. Besides, the “NFAT signalling molecular pathway targets (Calnr, Bel-2, ATX, MMP-9 and NFAT) with treatment” value in data set [6] is “decreases”. Further, in data set [7], the “anti-cancer activity of immune checkpoint modulators such as pembrolizumab on addition of SOR-C13” value was “increases”. In data set [8], the anti-tumour activity entry is reported as “promising anti-tumour activity”; the “tolerability and safety profile” value was “good tolerability and manageable safety profile”.

These data come from US20250064889A1, “TRPV6 INHIBITORS AND COMBINATION THERAPIES FOR TREATING CANCERS” (Soricimed Biopharma Inc., priority 2017, published 2025).
